Assays:
Test in all cases: relative viability (nuclei count vs DMSO), 5 days (fraction); higher = more cells survive
EBC-1 = system: EBC-1
How it was run: (§1)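 Five library-drug doses in √10 steps were combined with a fixed anchor-drug dose, or a single drug was given alone, by pin tool to lung cancer cell lines in 1536-well plates the day after seeding. Nuclei were stained and counted after 5 days. Relative viability is the nuclei count in treated wells over that in vehicle wells, taken as the median of duplicate plates.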

NCI-H2228 = system: NCI-H2228
How it was run: as §1

ABC-1 = system: ABC-1
How it was run: as §1

NCI-H1703 = system: NCI-H1703
How it was run: as §1

IA-LM = system: IA-LM
How it was run: as §1

Calu-6 = system: Calu-6
How it was run: as §1

A549 = system: A549
How it was run: as §1

NCI-H2009 = system: NCI-H2009
How it was run: as §1

NCI-H1299 = system: NCI-H1299
How it was run: as §1

EMC-BAC-2 = system: EMC-BAC-2
How it was run: as §1

NCI-H1648 = system: NCI-H1648
How it was run: as §1

Row | SMILES | relative viability (EBC-1; first compound 0.02 µM) | relative viability (EBC-1; first compound 0.2 µM) | relative viability (EBC-1; first compound 0.6325 µM) | relative viability (EBC-1; first compound 2 µM) | relative viability (NCI-H2228; first compound 0.02 µM) | relative viability (NCI-H2228; first compound 0.2 µM) | relative viability (NCI-H2228; first compound 0.6325 µM) | relative viability (NCI-H2228; first compound 2 µM) | relative viability (ABC-1; first compound 0.02 µM) | relative viability (ABC-1; first compound 0.2 µM) | relative viability (ABC-1; first compound 0.6325 µM) | relative viability (ABC-1; first compound 2 µM) | relative viability (NCI-H2009; first compound 0.02 µM) | relative viability (NCI-H2009; first compound 0.2 µM) | relative viability (NCI-H2009; first compound 0.6325 µM) | relative viability (NCI-H2009; first compound 2 µM) | relative viability (EMC-BAC-2; first compound 0.02 µM) | relative viability (EMC-BAC-2; first compound 0.2 µM) | relative viability (EMC-BAC-2; first compound 0.6325 µM) | relative viability (EMC-BAC-2; first compound 2 µM) | further results
1 | CN1CCN(CCOc2cc(OC3CCOCC3)c3c(Nc4c(Cl)ccc5c4OCO5)ncnc3c2)CC1 [Saracatinib] + C[C@]1(O)C[C@@H](c2nc(-c3ccc4ccc(-c5ccccc5)nc4c3)c3c(N)nccn32)C1 [Linsitinib] (partner 1 µM) | 0.94 | 0.771 | 1.07 | 0.982 | 0.806 | 0.704 | 0.574 | 0.392 | 0.61 | 0.902 | 0.677 | 0.753 | 1.19 | 1.04 | 1.15 | 1.04 | 0.813 | 0.775 | 0.642 | 0.497 | relative viability (NCI-H1703; first compound 0.02 µM): 1.02; relative viability (NCI-H1703; first compound 0.2 µM): 0.738; relative viability (NCI-H1703; first compound 0.6325 µM): 0.513; relative viability (NCI-H1703; first compound 2 µM): 0.35; relative viability (IA-LM; first compound 0.02 µM): 0.682; relative viability (IA-LM; first compound 0.2 µM): 0.838; relative viability (IA-LM; first compound 0.6325 µM): 1.43; relative viability (IA-LM; first compound 2 µM): 0.815; relative viability (Calu-6; first compound 0.02 µM): 0.95; relative viability (Calu-6; first compound 0.2 µM): 0.824; relative viability (Calu-6; first compound 0.6325 µM): 0.906; relative viability (Calu-6; first compound 2 µM): 0.68; relative viability (A549; first compound 0.02 µM): 0.564; relative viability (A549; first compound 0.2 µM): 0.566; relative viability (A549; first compound 0.6325 µM): 0.638; relative viability (A549; first compound 2 µM): 0.357; relative viability (NCI-H1299; first compound 0.02 µM): 0.992; relative viability (NCI-H1299; first compound 0.2 µM): 0.791; relative viability (NCI-H1299; first compound 0.6325 µM): 0.979; relative viability (NCI-H1299; first compound 2 µM): 0.655
2 | CN1CCN(CCOc2cc(OC3CCOCC3)c3c(Nc4c(Cl)ccc5c4OCO5)ncnc3c2)CC1 [Saracatinib] + Cc1nc(NC(=O)N2CCC[C@H]2C(N)=O)sc1-c1ccnc(C(C)(C)C(F)(F)F)c1 [Alpelisib] (partner 2 µM) | 0.929 | 0.764 | 0.898 | 0.906 | 0.734 | 0.562 | 0.532 | 0.365 | 0.854 | 1.06 | 0.981 | 0.857 | 1.16 | 1.14 | 1.01 | 0.961 | 0.778 | 0.657 | 0.697 | 0.578 | relative viability (NCI-H1703; first compound 0.02 µM): 0.321; relative viability (NCI-H1703; first compound 0.2 µM): 0.243; relative viability (NCI-H1703; first compound 0.6325 µM): 0.189; relative viability (NCI-H1703; first compound 2 µM): 0.184; relative viability (IA-LM; first compound 0.02 µM): 0.93; relative viability (IA-LM; first compound 0.6325 µM): 1.44; relative viability (IA-LM; first compound 2 µM): 0.958; relative viability (Calu-6; first compound 0.02 µM): 1.02; relative viability (Calu-6; first compound 0.2 µM): 0.683; relative viability (Calu-6; first compound 0.6325 µM): 0.721; relative viability (Calu-6; first compound 2 µM): 0.76; relative viability (A549; first compound 0.02 µM): 0.799; relative viability (A549; first compound 0.2 µM): 0.718; relative viability (A549; first compound 0.6325 µM): 0.861; relative viability (A549; first compound 2 µM): 0.5; relative viability (NCI-H1299; first compound 0.02 µM): 1.08; relative viability (NCI-H1299; first compound 0.2 µM): 1.02; relative viability (NCI-H1299; first compound 0.6325 µM): 1.14; relative viability (NCI-H1299; first compound 2 µM): 1.1
3 | CN1CCN(CCOc2cc(OC3CCOCC3)c3c(Nc4c(Cl)ccc5c4OCO5)ncnc3c2)CC1 [Saracatinib] + Nc1nc2[nH]cc(CCc3ccc(C(=O)N[C@@H](CCC(=O)O)C(=O)O)cc3)c2c(=O)[nH]1 [Pemetrexed] (partner 0.2 µM) | – | – | – | – | 0.355 | 0.342 | 0.332 | 0.266 | – | – | – | – | 1.01 | 0.962 | 0.993 | 1.05 | 0.456 | 0.373 | 0.44 | 0.442 | relative viability (NCI-H1648; first compound 0.02 µM): 0.721; relative viability (NCI-H1648; first compound 0.2 µM): 0.766; relative viability (NCI-H1648; first compound 0.6325 µM): 1.08; relative viability (NCI-H1648; first compound 2 µM): 0.415

Reference: the supplement of paper PMC10307832
